{"source": "paper PMC5064435", "about": "“Inhibition of endoplasmic reticulum glucosidases is required for in vitro and in vivo dengue antiviral activity by the iminosugar UV-4” (Antiviral Research, 2016)", "target": "T1, α-glucosidase II (human MDMΦs) (Homo sapiens, UniProt Q14697)", "T1 construct": "gene GANAB; endogenous enzyme in primary human monocyte-derived macrophages; with Glucosidase 2 subunit beta", "T1 sequence (Q14697 29-944)": "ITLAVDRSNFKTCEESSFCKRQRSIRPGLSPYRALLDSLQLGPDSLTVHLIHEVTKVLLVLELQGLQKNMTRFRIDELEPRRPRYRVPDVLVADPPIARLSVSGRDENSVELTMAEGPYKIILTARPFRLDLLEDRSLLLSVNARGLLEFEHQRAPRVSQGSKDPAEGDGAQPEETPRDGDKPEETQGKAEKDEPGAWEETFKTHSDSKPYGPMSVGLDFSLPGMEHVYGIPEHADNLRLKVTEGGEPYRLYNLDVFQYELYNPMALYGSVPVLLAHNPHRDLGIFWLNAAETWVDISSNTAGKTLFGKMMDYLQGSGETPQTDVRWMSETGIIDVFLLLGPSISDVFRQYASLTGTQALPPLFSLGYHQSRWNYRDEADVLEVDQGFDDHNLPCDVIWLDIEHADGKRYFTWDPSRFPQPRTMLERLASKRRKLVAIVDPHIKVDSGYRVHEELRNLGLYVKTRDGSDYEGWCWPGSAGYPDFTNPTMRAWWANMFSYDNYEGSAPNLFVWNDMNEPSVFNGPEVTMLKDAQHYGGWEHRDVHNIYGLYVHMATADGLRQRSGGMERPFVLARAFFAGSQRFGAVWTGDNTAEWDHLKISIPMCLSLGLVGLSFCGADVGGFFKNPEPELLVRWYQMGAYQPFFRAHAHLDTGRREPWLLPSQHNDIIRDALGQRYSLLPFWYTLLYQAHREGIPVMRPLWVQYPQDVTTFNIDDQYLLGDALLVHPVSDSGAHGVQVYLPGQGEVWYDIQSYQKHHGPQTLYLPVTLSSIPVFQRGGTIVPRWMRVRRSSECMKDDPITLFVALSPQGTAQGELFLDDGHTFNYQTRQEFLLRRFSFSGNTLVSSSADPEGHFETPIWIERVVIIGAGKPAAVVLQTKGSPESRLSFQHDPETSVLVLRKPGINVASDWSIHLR", "T1 sequence (P14314 15-528 partner)": "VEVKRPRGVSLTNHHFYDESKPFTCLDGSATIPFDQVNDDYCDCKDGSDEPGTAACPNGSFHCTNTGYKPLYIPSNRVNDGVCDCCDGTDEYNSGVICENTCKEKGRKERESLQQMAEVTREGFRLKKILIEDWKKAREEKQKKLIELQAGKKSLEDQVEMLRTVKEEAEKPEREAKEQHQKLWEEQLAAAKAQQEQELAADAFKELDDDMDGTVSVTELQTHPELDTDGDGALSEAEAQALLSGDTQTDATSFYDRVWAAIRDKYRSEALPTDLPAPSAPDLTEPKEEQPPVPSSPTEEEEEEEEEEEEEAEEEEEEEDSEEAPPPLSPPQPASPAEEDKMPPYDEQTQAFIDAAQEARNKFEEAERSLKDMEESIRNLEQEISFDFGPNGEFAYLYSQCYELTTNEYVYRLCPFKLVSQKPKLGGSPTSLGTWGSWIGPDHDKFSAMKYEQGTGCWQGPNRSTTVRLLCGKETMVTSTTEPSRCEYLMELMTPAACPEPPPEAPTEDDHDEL", "assay": "free oligosaccharide (Glc1Man4GlcNAc1) accumulation in human MDMΦs", "assay_type": "cell-based", "details": "[…] h treatment of uninfected cells", "note": "Counter-ions that a name gives are not always drawn."}
{"smiles": "COCCCCCCCCCN1C[C@H](O)[C@@H](O)[C@H](O)[C@H]1CO", "note": "[UV-4B, N-(9′-methoxynonyl)-1-deoxynojirimycin hydrochloride]", "values": [{"measurement": "free oligosaccharide (Glc1Man4GlcNAc1) accumulation in human MDMΦs", "result": "UV-4B led to accumulation of FOS representative of inhibition of both α-glucosidases"}]}
